Patent US6403535B1, “Substituted thiazol(in) ylideneamino sulfonylamino (thio)carbonyl-triazolinones” (Bayer Aktiengesellschaft, priority 1998, dated 2002)

Columns and labels:
Amaranthus [1] = test: Post-emergence test/greenhouse; assay type: in vivo; settings: 504 h, after three weeks, read-out: degree of damage, Amaranthus; for pest or weed control at 125 g/ha: 125 g of a.i./ha; for pest or weed control at 60 g/ha: 60 g of a.i./ha
Description: (§1) To produce a suitable preparation of active compound, 1 part by weight of active compound is mixed with the stated amount of solvent, the stated amount of emulsifier is added and the concentrate is diluted with water to the desired concentration.
(§2) Test plants of a height of 5 -15 cm are sprayed with the preparation of active compound such that the particular amounts of active compound desired are applied per unit area. The concentration of the spray liquor is chosen so that the particular amounts of active compound desired are applied in 1000 l of water/ha.
(§3) After three weeks, the degree of damage to the plants is rated in % damage in comparison to the development of the untreated control.
(§4) 0%=no effect (like untreated control)

Solanum = test: Post-emergence test/greenhouse; assay type: in vivo; settings: 504 h, after three weeks, read-out: degree of damage, Solanum; for pest or weed control at 125 g/ha: 125 g of a.i./ha
Description: as §1, §2, §3, §4

Abutilon = test: Post-emergence test/greenhouse; assay type: in vivo; settings: 504 h, after three weeks, read-out: degree of damage, Abutilon; for pest or weed control at 125 g/ha: 125 g of a.i./ha; for pest or weed control at 60 g/ha: 60 g of a.i./ha
Description: as §1, §2, §3, §4

Stellaria = test: Post-emergence test/greenhouse; assay type: in vivo; settings: 504 h, after three weeks, read-out: degree of damage, Stellaria; for pest or weed control at 125 g/ha: 125 g of a.i./ha; for pest or weed control at 60 g/ha: 60 g of a.i./ha
Description: as §1, §2, §3, §4

Chenopodium [2] = test: Post-emergence test/greenhouse; assay type: in vivo; settings: 504 h, after three weeks, read-out: degree of damage, Chenopodium; for pest or weed control at 125 g/ha: 125 g of a.i./ha; for pest or weed control at 60 g/ha: 60 g of a.i./ha
Description: as §1, §2, §3, §4

weeds [3] = test: Post-emergence test, activity against weeds; assay type: in vivo
Description: as §1, §2, §3, §4

Amaranthus [4] = test: Pre-emergence test/greenhouse; assay type: in vivo; settings: 504 h, after three weeks, read-out: degree of damage, Amaranthus; for pest or weed control at 125 g/ha: 125 g of a.i./ha
Description: as §1
(§5) Seeds of the test plants are sown in normal soil. After about 24 hours, the soil is sprayed with the preparation of active compound such that the particular amount of active compound desired is applied per unit area. The concentration of the spray liquor is chosen so that the particular amount of active compound desired is applied in 1000 liters of water per hectare.
as §3, §4

Matricaria [5] = test: Pre-emergence test/greenhouse; assay type: in vivo; settings: 504 h, after three weeks, read-out: degree of damage, Matricaria; for pest or weed control at 125 g/ha: 125 g of a.i./ha
Description: as §1, §5, §3, §4

Chenopodium [6] = test: Pre-emergence test/greenhouse; assay type: in vivo; settings: after three weeks
Description: as §1, §5, §3, §4

Veronica [7] = test: Pre-emergence test/greenhouse; assay type: in vivo; settings: 504 h, after three weeks, read-out: degree of damage, Veronica; for pest or weed control at 125 g/ha: 125 g of a.i./ha
Description: as §1, §5, §3, §4

weeds [8] = test: Pre-emergence test, activity against weeds; assay type: in vivo
Description: as §1, §5, §3, §4

Setaria = test: Pre-emergence test/greenhouse; assay type: in vivo; settings: after three weeks
Description: as §1, §5, §3, §4

Sugar beet = test: Pre-emergence test/greenhouse; assay type: in vivo; settings: 125 g of a.i./ha, after three weeks, 0%=no effect, 100%=total destruction
Description: as §1, §5, §3, §4

Echinochloa = test: Pre-emergence test/greenhouse; assay type: in vivo; settings: 504 h, 125 g of a.i./ha, after three weeks, read-out: degree of damage, Echinochloa
Description: as §1, §5, §3, §4

Maize = test: Pre-emergence test/greenhouse; assay type: in vivo; settings: 125 g of a.i./ha, after three weeks, 0%=no effect, 100%=total destruction
Description: as §1, §5, §3, §4

Polygonum = test: Post-emergence test/greenhouse; assay type: in vivo; settings: 60 g of a.i./ha, after three weeks
Description: as §1, §2, §3, §4

Matricaria [9] = test: Post-emergence test/greenhouse; assay type: in vivo; settings: 60 g of a.i./ha, after three weeks
Description: as §1, §2, §3, §4

Veronica [10] = test: Post-emergence test/greenhouse; assay type: in vivo; settings: 60 g of a.i./ha, after three weeks
Description: as §1, §2, §3, §4

melting point	Compound	pest or weed control at 125 g/ha (Amaranthus [1])	pest or weed control at 125 g/ha (Solanum)	pest or weed control at 125 g/ha (Abutilon)	pest or weed control at 125 g/ha (Stellaria)	pest or weed control at 125 g/ha (Chenopodium [2])	activity against weeds (weeds [3])	pest or weed control at 125 g/ha (Amaranthus [4])	pest or weed control at 125 g/ha (Matricaria [5])	degree of damage, Chenopodium (Chenopodium [6]; 125 g of a.i./ha)	pest or weed control at 125 g/ha (Veronica [7])	activity against weeds (weeds [8])	pest or weed control at 125 g/ha (Echinochloa)	pest or weed control at 60 g/ha (Abutilon)	pest or weed control at 60 g/ha (Stellaria)	further results
	CCCn1ccs/c1=N\S(=O)(=O)NC(=O)n1nc(OCC2CC2)n(C)c1=O [Example 48]	95%	80%	80%	80%	100%	very strong activity									
	CCCn1ccs/c1=N\S(=O)(=O)NC(=O)n1nc(OCC)n(CC)c1=O [Example 49]	100%	95%	70%	95%	100%	very strong activity									
	C/C=C/c1nn(C(=O)NS(=O)(=O)/N=c2\sccn2CCC)c(=O)n1C1CC1 [Example 51]							100%	100%	95%	100%	very strong activity				
	CCCc1nn(C(=O)NS(=O)(=O)/N=c2\sccn2CCC)c(=O)n1C1CC1 [Example 55]	100%	90%	95%	100%	100%	very strong activity									
	CCCn1ccs/c1=N\S(=O)(=O)NC(=O)n1nc(OCC)n(C2CC2)c1=O [Example 56]															pest or weed control at 250 g/ha (Amaranthus [4]; 250 g of a.i./ha): 100%; pest or weed control at 250 g/ha (Matricaria [5]; 250 g of a.i./ha): 100%; degree of damage, Setaria (Setaria; 250 g of a.i./ha): 100%; degree of damage, Chenopodium (Chenopodium [6]; 250 g of a.i./ha): 100%; pest or weed control at 250 g/ha (Veronica [7]; 250 g of a.i./ha): 100%
189 °C	COc1nn(C(=O)NS(=O)(=O)/N=c2\sccn2CCCF)c(=O)n1C [Example 124]							70%	100%		95%	very strong activity	90%			degree of damage, Setaria (Setaria; 125 g of a.i./ha): 95%; degree of damage, Sugar beet (Sugar beet): 0%; degree of damage, Maize (Maize): 0%
170 °C	CC(C)Oc1nn(C(=O)NS(=O)(=O)/N=c2/sccn2CCCF)c(=O)n1C [Example 125]						very strong activity	70%	100%	95%	100%	very strong activity	90%	90%	90%	pest or weed control at 60 g/ha (Solanum; 60 g of a.i./ha): 90%; degree of damage, Polygonum (Polygonum): 90%
180 °C	CCOc1nn(C(=O)NS(=O)(=O)/N=c2\sccn2CCCF)c(=O)n1C1CC1 [Example 130]						very strong activity	100%	100%	100%	100%	very strong activity	100%	95%	95%	pest or weed control at 60 g/ha (Amaranthus [1]): 100%; degree of damage, Matricaria (Matricaria [9]): 100%; pest or weed control at 60 g/ha (Chenopodium [2]): 100%; degree of damage, Veronica (Veronica [10]): 100%
154 °C	CC(C)Oc1nn(C(=O)NS(=O)(=O)/N=c2\sccn2CCCF)c(=O)n1C1CC1 [Example 131]						very strong activity	100%	100%	95%	95%	very strong activity	80%	90%	95%	pest or weed control at 60 g/ha (Amaranthus [1]): 100%; degree of damage, Matricaria (Matricaria [9]): 95%; pest or weed control at 60 g/ha (Chenopodium [2]): 95%; degree of damage, Veronica (Veronica [10]): 90%
